Measurements reported in PubChem BioAssay (NCI).
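A five-concentration, 48-hour dose response in 96-well plates underlies each endpoint, interpolated linearly between surrounding concentrations. TGI is the concentration that stops growth completely.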

Experiments:
Experiment in all cases: NCI-60 cell line screen, 48 h
[1] = tested on: M19-MEL melanoma
[2] = tested on: HOP-62 NSCLC
[3] = tested on: MOLT-4 leukemia
[4] = tested on: HOP-92 NSCLC
[5] = tested on: 786-0 renal
[6] = tested on: SNB-75 CNS
[7] = tested on: COLO 205 colon
[8] = tested on: EKVX NSCLC
[9] = tested on: HCT-15 colon
[10] = tested on: MALME-3M melanoma
[11] = tested on: SK-OV-3 ovarian
[12] = tested on: RPMI-8226 leukemia
[13] = tested on: UO-31 renal
[14] = tested on: UACC-62 melanoma
[15] = tested on: NCI-H23 lung
[16] = tested on: SK-MEL-5 melanoma
[17] = tested on: ACHN renal
[18] = tested on: RXF 393 renal
[19] = tested on: XF 498 CNS
[20] = tested on: SW-620 colon
[21] = tested on: OVCAR-8 ovarian
[22] = tested on: NCI-H522 lung
[23] = tested on: HT29 colon
[24] = tested on: SK-MEL-2 melanoma
[25] = tested on: TK-10 renal
[26] = tested on: A498 renal
[27] = tested on: KM12 colon
[28] = tested on: LOX IMVI melanoma
[29] = tested on: DMS 273 small cell lung
[30] = tested on: LXFL 529 NSCLC
[31] = tested on: IGROV1 ovarian
[32] = tested on: SF-539 CNS
[33] = tested on: OVCAR-5 ovarian
[34] = tested on: NCI-H226 lung
[35] = tested on: NCI-H460 lung
[36] = tested on: SNB-19 CNS
[37] = tested on: SN12C renal
[38] = tested on: SK-MEL-28 melanoma
[39] = tested on: DLD-1 colon
[40] = tested on: CCRF-CEM leukemia
[41] = tested on: HL-60(TB) leukemia
[42] = tested on: SF-295 CNS
[43] = tested on: OVCAR-4 ovarian
[44] = tested on: KM20L2 colon
[45] = tested on: K-562 leukemia
[46] = tested on: HCC-2998 colon
[47] = tested on: SF-268 CNS
[48] = tested on: A549 NSCLC
[49] = tested on: M14 melanoma
[50] = tested on: UACC-257 melanoma
[51] = tested on: OVCAR-3 ovarian
[52] = tested on: CAKI-1 renal
[53] = tested on: DMS 114 small cell lung
[54] = tested on: SNB-78 CNS
[55] = tested on: HCT-116 colon
[56] = tested on: U251 CNS

## O=C(Cn1ccnc1[N+](=O)[O-])c1ccccc1
[1]
  TGI: > 100 µM
[2]
  TGI: > 100 µM
[3]
  TGI: > 100 µM
[4]
  TGI: > 100 µM
[5]
  TGI: > 100 µM
[6]
  TGI: > 100 µM
[7]
  TGI: > 100 µM
[8]
  TGI: > 100 µM
[9]
  TGI: > 100 µM
[10]
  TGI: > 100 µM
[11]
  TGI: > 100 µM
[12]
  TGI: > 100 µM
[13]
  TGI: > 100 µM
[14]
  TGI: > 100 µM
[15]
  TGI: > 100 µM
[16]
  TGI: > 100 µM
[17]
  TGI: > 100 µM
[18]
  TGI: > 100 µM
[19]
  TGI: > 100 µM
[20]
  TGI: > 100 µM
[21]
  TGI: > 100 µM
[22]
  TGI: > 100 µM
[23]
  TGI: > 100 µM
[24]
  TGI: > 100 µM
[25]
  TGI: > 100 µM
[26]
  TGI: > 100 µM
[27]
  TGI: > 100 µM
[28]
  TGI: > 100 µM
[29]
  TGI: > 100 µM
[30]
  TGI: > 100 µM
[31]
  TGI: > 100 µM
[32]
  TGI: > 100 µM
[33]
  TGI: > 100 µM
[34]
  TGI: > 100 µM
[35]
  TGI: > 100 µM
[36]
  TGI: > 100 µM
[37]
  TGI: > 100 µM
[38]
  TGI: > 100 µM
[39]
  TGI: > 100 µM
[40]
  TGI: > 100 µM
[41]
  TGI: > 100 µM
[42]
  TGI: > 100 µM
[43]
  TGI: > 100 µM
[44]
  TGI: > 100 µM
[45]
  TGI: > 100 µM
[46]
  TGI: > 100 µM
[47]
  TGI: > 100 µM
[48]
  TGI: > 100 µM
[49]
  TGI: > 100 µM
[50]
  TGI: > 100 µM
[51]
  TGI: > 100 µM
[52]
  TGI: > 100 µM

## COc1ccc(C(N)=O)c(OC)c1OCc1ccccc1
[1]
  TGI: > 100 µM
[2]
  TGI: > 100 µM
[3]
  TGI: > 100 µM
[4]
  TGI: > 100 µM
[5]
  TGI: > 100 µM
[6]
  TGI: > 100 µM
[7]
  TGI: > 100 µM
[8]
  TGI: > 100 µM
[9]
  TGI: > 100 µM
[11]
  TGI: > 100 µM
[12]
  TGI: > 100 µM
[13]
  TGI: > 100 µM
[14]
  TGI: > 100 µM
[15]
  TGI: > 100 µM
[16]
  TGI: > 100 µM
[17]
  TGI: > 100 µM
[18]
  TGI: 7.11 µM
[53]
  TGI: > 100 µM
[20]
  TGI: > 100 µM
[21]
  TGI: > 100 µM
[22]
  TGI: 81.7 µM
[23]
  TGI: > 100 µM
[24]
  TGI: > 100 µM
[25]
  TGI: > 100 µM
[26]
  TGI: > 100 µM
[27]
  TGI: > 100 µM
[28]
  TGI: > 100 µM
[29]
  TGI: > 100 µM
[30]
  TGI: > 100 µM
[31]
  TGI: > 100 µM
[32]
  TGI: > 100 µM
[33]
  TGI: > 100 µM
[34]
  TGI: > 100 µM
[35]
  TGI: > 100 µM
[36]
  TGI: > 100 µM
[37]
  TGI: > 100 µM
[54]
  TGI: > 100 µM
[38]
  TGI: > 100 µM
[55]
  TGI: > 100 µM
[39]
  TGI: > 100 µM
[40]
  TGI: > 100 µM
[41]
  TGI: > 100 µM
[42]
  TGI: > 100 µM
[43]
  TGI: > 100 µM
[44]
  TGI: > 100 µM
[45]
  TGI: > 100 µM
[56]
  TGI: > 100 µM
[46]
  TGI: > 100 µM
[47]
  TGI: > 100 µM
[48]
  TGI: > 100 µM
[49]
  TGI: > 100 µM
[51]
  TGI: > 100 µM
